One compound from PMC8198190, “The PFKFB3 Inhibitor AZ67 Inhibits Angiogenesis Independently of Glycolysis Inhibition” (International Journal of Molecular Sciences, 2021) can be followed below.

The target in the assay is T1, PFKFB3 (6-phosphofructo-2-kinase/fructose-2,6-bisphosphatase-3) (Homo sapiens, UniProt Q16875).
T1 construct: recombinant human PFKFB3 produced in E. coli
Description: isothermal titration calorimetry (MicroCal Peaq-ITC, […] °C, triplicate). The format is binding. (Isothermal titration calorimetry measures the heat released or taken up as one component is titrated into another.)

T1 sequence (Q16875 whole entry): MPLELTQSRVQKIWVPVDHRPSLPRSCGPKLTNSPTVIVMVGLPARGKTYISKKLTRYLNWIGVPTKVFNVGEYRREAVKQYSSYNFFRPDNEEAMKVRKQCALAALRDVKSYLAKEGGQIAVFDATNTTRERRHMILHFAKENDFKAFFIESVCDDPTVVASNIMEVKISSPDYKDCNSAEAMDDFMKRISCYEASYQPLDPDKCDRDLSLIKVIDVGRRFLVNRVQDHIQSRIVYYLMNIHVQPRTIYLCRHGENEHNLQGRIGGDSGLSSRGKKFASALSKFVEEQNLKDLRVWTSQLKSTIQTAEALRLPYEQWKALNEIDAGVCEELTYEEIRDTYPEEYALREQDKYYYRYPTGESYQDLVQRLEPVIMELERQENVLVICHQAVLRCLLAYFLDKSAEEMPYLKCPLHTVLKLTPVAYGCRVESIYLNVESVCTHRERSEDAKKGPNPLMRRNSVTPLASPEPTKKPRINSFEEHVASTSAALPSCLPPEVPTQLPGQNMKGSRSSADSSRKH

For orientation: Kd means the constant that tells how readily two partners part at equilibrium. The low end stands for higher affinity, the high end for lower affinity. Turning to `Cc1noc(C)c1Cn1cc(C#N)c2cc(Oc3ccc(NC(=O)[C@@H]4CCCN4)cc3)ccc21` [AZ67], binding was put at a Kd of 168 nM.
